Assay results reported in ChEMBL document CHEMBL5512621, “Overview of the development of protein arginine methyltransferase modulators: Achievements and future directions” (Eur J Med Chem, 2024).

Legend:
[1] = biological target: T1, Protein arginine N-methyltransferase 7 (Homo sapiens, UniProt Q9NVM4); assay: Inhibition of PRMT7 (unknown origin)
T1 sequence (Q9NVM4 whole entry): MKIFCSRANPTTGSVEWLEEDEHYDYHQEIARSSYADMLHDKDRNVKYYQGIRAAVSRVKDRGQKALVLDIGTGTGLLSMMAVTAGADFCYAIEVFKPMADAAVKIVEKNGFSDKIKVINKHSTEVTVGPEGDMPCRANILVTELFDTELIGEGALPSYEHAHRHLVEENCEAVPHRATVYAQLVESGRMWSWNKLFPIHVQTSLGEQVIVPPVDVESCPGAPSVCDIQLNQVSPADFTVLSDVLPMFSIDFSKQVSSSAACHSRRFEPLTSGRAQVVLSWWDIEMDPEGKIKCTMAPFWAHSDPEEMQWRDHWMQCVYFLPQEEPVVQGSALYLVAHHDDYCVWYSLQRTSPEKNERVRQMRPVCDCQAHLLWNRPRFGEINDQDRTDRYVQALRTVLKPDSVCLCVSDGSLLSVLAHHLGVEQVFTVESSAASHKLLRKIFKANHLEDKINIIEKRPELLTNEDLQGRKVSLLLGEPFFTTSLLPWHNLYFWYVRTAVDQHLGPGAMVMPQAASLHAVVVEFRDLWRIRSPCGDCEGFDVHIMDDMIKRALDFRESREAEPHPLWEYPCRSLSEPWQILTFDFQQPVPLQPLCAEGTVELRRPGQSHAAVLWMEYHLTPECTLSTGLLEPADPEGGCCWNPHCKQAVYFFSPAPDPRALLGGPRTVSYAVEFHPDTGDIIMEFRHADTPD

PC-3 = assay: Inhibition of cell growth in human PC-3 cells; assay type: functional, cell-based
JeKo-1 = assay: Inhibition of cell growth in human JeKo-1 cells; assay type: functional, cell-based
ES-2 = assay: Inhibition of cell growth in human ES2 cells; assay type: functional, cell-based
[2] = biological target: T2, Protein arginine N-methyltransferase 7 (Mus musculus, UniProt Q922X9); assay: Inhibition of PRMT7 in mouse C2C12 cells assessed as reduction in HSP70 methylation; assay type: cell-based
T2 sequence (Q922X9 whole entry): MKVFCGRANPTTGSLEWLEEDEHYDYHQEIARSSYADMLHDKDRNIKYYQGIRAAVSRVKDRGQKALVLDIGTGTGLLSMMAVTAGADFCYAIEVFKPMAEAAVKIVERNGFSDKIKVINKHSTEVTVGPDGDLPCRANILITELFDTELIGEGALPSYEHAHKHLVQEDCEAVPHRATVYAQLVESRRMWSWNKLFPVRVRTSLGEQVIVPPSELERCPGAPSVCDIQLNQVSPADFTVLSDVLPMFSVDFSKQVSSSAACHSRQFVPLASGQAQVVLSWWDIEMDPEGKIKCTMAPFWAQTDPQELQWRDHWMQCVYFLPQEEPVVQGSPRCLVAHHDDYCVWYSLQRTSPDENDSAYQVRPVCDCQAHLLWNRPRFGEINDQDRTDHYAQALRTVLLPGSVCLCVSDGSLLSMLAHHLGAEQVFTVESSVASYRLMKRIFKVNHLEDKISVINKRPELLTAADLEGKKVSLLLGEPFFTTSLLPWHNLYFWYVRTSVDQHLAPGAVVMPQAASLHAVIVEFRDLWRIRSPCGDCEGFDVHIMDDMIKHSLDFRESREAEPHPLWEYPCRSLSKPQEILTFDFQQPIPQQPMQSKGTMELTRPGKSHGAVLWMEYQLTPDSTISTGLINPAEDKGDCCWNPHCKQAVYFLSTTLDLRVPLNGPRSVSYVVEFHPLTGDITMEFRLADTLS

Structure (SMILES) | IC50 [1] [nM] | IC50 (PC-3) [nM] | IC50 (JeKo-1) [nM] | IC50 (ES-2) [nM] | IC50 [2] [nM]
COc1cc(-c2ncc(F)c(Nc3ccc4cc(C)cc(N)c4c3)n2)cc(OC)c1OC | 2100 | < 10000 | < 10000 | < 10000 | 
CC1=C(C)C(=O)C(C(C)(C)CC(=O)N(CCCCSC[C@H]2O[C@@H](n3cnc4c(N)ncnc43)[C@H](O)[C@@H]2O)Cc2ccc(-c3ccc(Cl)cc3)cc2)=C(C)C1=O |  |  |  |  | 2400
